{"source": "patent US7423020B2", "about": "“Treatment of mood disorders by administration of SMR1” (Institut Pasteur, priority 2001, dated 2008)", "key": {"[1]": {"assay": "Tissue uptake of SMR1-Pentapeptide in vivo", "parameters": "species or system rat"}, "male Wistar/AF EOPS rats": {"tested_on": "male Wistar/AF EOPS rats", "assay": "Behavioral despair test (forced swimming)", "format": "in vivo, rat", "parameters": "change of period of immobility, retest compared with test: dose or concentration left out as unconfirmed", "conditions": "for Immobility period, Retest / Immobility period, Test: first 5 minutes, n = 10; for Immobility period, Test: test session before any treatment"}, "NEP [2]": {"biological_target": "T1, NEP (Rattus norvegicus, UniProt P07861)", "T1 construct": "incubations of membrane and fresh tissue slice preparations from nervous tissues; from tissue; host or cells: rat spinal cord (dorsal zone), fresh slices or 100 000 x g membrane fraction", "T1 sequence (P07861 1-750)": "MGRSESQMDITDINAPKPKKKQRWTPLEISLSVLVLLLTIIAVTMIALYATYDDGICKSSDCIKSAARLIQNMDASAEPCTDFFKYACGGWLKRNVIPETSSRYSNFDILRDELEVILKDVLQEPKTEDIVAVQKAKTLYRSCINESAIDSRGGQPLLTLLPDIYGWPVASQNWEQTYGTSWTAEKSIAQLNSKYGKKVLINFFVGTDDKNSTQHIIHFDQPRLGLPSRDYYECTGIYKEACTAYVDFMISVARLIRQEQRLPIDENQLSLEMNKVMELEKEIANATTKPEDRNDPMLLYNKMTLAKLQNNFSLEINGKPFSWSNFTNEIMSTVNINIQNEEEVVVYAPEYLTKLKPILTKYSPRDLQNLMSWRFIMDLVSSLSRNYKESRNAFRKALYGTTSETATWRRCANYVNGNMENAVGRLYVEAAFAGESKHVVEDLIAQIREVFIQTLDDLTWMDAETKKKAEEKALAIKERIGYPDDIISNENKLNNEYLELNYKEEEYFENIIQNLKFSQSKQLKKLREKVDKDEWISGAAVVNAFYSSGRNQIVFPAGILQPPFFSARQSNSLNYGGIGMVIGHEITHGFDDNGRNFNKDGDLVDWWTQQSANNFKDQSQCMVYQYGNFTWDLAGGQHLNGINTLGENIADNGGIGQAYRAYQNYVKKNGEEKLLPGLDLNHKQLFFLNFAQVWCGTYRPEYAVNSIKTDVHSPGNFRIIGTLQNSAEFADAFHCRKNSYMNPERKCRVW", "assay": "3H-Substance P hydrolysis by rat spinal cord membrane preparations", "format": "biochemical", "method": "The organs dissected out and washed in ice-cold KRBG are homogenized at 4° C. in 10 volumes (vol./wt.) of 50 mM Tris/HCl buffered at pH 7.2, using a Teflon-glass homogenizer (3×5 sec.). A first centrifugation of 5 min. at 1000×g and 4° C. makes it possible to remove the tissular debris and the nuclei in the pellet. A second centrifugation of the supernatant at 100 000×g and 5° C. concentrates the membrane fraction into the pellet, which will be superficially washed three times with cold Tris/HCl buffer and resuspended in fresh buffer using a Kontes homogenizer, aliquoted and stored at -80° C. while waiting to be used as enzyme source, at least until three months. For the experiments of analysis of the NEP peptidase activity, an ex vivo model using incubations of membrane and fresh tissue slice preparations from nervous tissues that are known to be appropriate for exploring NEP peptidase activity: i.e. the dorsal zone of rat spinal cord, was first developed. The metabolism rate of the NEP-sensitive peptides was measured using the both NEP substrates involved in the signaling of the nociceptive response: the neuropeptides Met-enkephalin and Substance P. […] (NEN, 12.5-25 nM) were used. The objective was to measure the NEP-specific endoproteolysis of these substrates. […] The radioactivity of eluted and isolated compounds is determined by liquid scintillation spectrometry."}, "NEP [3]": {"biological_target": "T1, NEP", "assay": "3H-Substance P hydrolysis by rat spinal cord slices", "format": "biochemical", "conditions": "25° C., over 30 min incubation, read-out: inhibition of Substance P degradation", "method": "For the experiments of analysis of the NEP peptidase activity, an ex vivo model using incubations of membrane and fresh tissue slice preparations from nervous tissues that are known to be appropriate for exploring NEP peptidase activity: i.e. the dorsal zone of rat spinal cord, was first developed. […] (NEN, 12.5-25 nM) were used.\nThe objective was to measure the NEP-specific endoproteolysis of these substrates.\nThe C-18 Sep-Pak cartridges (Waters) were used to analyze the hydrolysis of the radiolabeled peptides: they separate compounds according to their differences in polarity. This solid-phase extraction procedure allows isolating the substrate from its metabolites, since the hydrophobic character of the peptide metabolites is reduced or even lost compared to the intact peptide substrate.\nThe radioactivity of eluted and isolated compounds is determined by liquid scintillation spectrometry."}}, "note": "Several values for one entry are separate records, joined by “and”; a condition that tells them apart may be missing. Identical values can stand only once. Entries after “also recorded” stand apart in the source; their conditions may differ. Where a SMILES comes first, the peptide text is derived from it.", "data": [{"smiles": "N=C(N)NCCC[C@H](NC(=O)[C@@H]1CCCN1C(=O)[C@H](CC(N)=O)NC(=O)[C@H](Cc1c[nH]cn1)NC(=O)[C@@H](N)CCC(N)=O)C(=O)O", "note": "[SMR1-QHNPR, QHNPR] (H-QHNPR-OH; N-terminus and C-terminus assumed)", "values": [{"measurement": "stability of tissue uptake", "setting": "[1]", "value": "pharmacokinetically and biochemically stable in vivo"}, {"measurement": "Immobility period, Retest", "setting": "male Wistar/AF EOPS rats; 50 μg/kg i.v., 1440, 300, 5 min before the retest", "value": "141.20 ± 21.28"}, {"measurement": "Immobility period, Retest", "setting": "male Wistar/AF EOPS rats; 100 μg/kg i.v., 1440, 300, 5 min before the retest", "value": "121.50 ± 17.47"}, {"measurement": "Immobility period, Test", "setting": "male Wistar/AF EOPS rats; FG-50 group, 50 μg/kg i.v.", "value": "119.00 ± 13.79"}, {"measurement": "Immobility period, Test", "setting": "male Wistar/AF EOPS rats; FG-100 group, 100 μg/kg i.v.", "value": "138.30 ± 11.03"}, {"measurement": "change of period of immobility, retest compared with test", "setting": "male Wistar/AF EOPS rats; dose of 100", "value": "reduce it"}, {"measurement": "IC50", "setting": "NEP [2]; 3H-Substance P 12.5 nM, 10 min at 25° C., read-out: IC50 (concentration reducing by half the degradation of 3H-substance P) (converted)", "value": "~100 nM and 100 nM"}, {"measurement": "protection of Substance P / NEP inhibitory potency compared with reference inhibitors", "setting": "NEP [2]; FIG. 3-B", "value": "equivalent to that obtained with Phosphoramidon; also recorded: equivalent to that of two well-known NEP-specific inhibitors, Thiorphan and Phosphoramidon"}, {"measurement": "inhibition at 10 µM", "setting": "NEP [3]", "value": 75, "unit": "%"}]}]}
